Laboratory results reported in patent US10981926B2 (Janssen Pharmaceutica NV, priority 2016, dated 2021).

Legend:
Type in all cases: cell-based
[1] = target: T1, F876L mutant Androgen Receptor (AR-F876L) (Homo sapiens (Human), UniProt P10275, F877L); test: LNCaP-AR-F876L ANT reporter assay (antagonist mode); conditions: for Emax: read-out: LNCaP-AR-F876L ANT MAX % Inh; for IC50: pIC50 = −Log10(IC50 in Molar), read-out: LNCaP-AR-F876L ANT pIC50 (converted)
[2] = target: T2, wild-type Androgen Receptor (AR-wt) (Homo sapiens (Human), UniProt P10275); test: LNCaP-AR-wt AG reporter assay (agonist mode); conditions: for Emax: read-out: LNCaP-AR-wt AG MAX % Stim; for EC50: pEC50 = −Log10(EC50 in Molar), read-out: LNCaP-AR-wt AG pEC50 (converted)
[3] = target: T1, F876L mutant Androgen Receptor (AR-F876L); test: LNCaP-AR-F876L AG reporter assay (agonist mode); conditions: for Emax: read-out: LNCaP-AR-F876L AG MAX % Stim; for EC50: pEC50 = −Log10(EC50 in Molar), read-out: LNCaP-AR-F876L AG pEC50 (converted)
[4] = target: T2, wild-type Androgen Receptor (AR-wt); test: LNCaP-AR-wt ANT reporter assay (antagonist mode); conditions: for Emax: read-out: LNCaP-AR-wt ANT MAX % Inh; for IC50: pIC50 = −Log10(IC50 in Molar), read-out: LNCaP-AR-wt ANT pIC50 (converted)
[5] = antagonist mode, maximum % inhibition of R1881 control response over tested concentration range
[6] = agonist mode, maximum % stimulation over tested concentration range
[7] = maximum % inhibition of R1881 control response over the tested concentration range
[8] = maximum % stimulation (agonist response) over the tested concentration range

T1 sequence (P10275 whole entry F877L): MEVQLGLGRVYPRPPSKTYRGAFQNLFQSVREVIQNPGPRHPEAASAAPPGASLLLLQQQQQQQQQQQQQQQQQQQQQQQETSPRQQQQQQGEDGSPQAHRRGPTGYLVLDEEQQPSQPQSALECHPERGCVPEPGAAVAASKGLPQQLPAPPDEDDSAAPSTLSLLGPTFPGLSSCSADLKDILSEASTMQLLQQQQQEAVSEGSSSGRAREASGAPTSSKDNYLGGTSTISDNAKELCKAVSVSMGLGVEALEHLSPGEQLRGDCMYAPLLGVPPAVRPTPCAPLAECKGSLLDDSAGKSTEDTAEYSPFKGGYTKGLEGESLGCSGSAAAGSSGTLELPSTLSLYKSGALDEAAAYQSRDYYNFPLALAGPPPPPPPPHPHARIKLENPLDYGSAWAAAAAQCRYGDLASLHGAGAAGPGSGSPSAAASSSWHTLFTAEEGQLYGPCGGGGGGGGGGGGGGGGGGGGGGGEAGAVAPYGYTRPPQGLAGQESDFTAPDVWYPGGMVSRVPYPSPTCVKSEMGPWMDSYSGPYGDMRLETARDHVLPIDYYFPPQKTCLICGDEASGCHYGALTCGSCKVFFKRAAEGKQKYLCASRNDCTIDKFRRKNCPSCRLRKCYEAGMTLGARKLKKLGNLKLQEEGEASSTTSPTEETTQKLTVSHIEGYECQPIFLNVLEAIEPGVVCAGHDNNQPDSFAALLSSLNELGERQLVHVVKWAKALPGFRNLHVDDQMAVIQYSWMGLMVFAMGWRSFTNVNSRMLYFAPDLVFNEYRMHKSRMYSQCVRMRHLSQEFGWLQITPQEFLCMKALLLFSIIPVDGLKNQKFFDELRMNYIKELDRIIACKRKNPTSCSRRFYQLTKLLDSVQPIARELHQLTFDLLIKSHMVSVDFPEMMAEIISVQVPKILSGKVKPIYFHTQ
T2 sequence (P10275 whole entry): as the sequence (P10275 whole entry F877L) above, with L877F counted along it

Row | Structure (SMILES) | Emax [1, 5] [%] | IC50 ([1]; antagonist mode) [nM] | Emax [2, 6] [%] | EC50 ([2]; agonist mode) [nM] | Emax [3, 6] [%] | EC50 ([3]; agonist mode) [nM] | Emax [4, 5] [%] | IC50 ([4]; antagonist mode) [nM] | Emax [1, 7] [%] | Emax [2, 8] [%] | Emax [3, 8] [%] | Emax [4, 7] [%] | LNCaP-AR-F876L AG MAX % Stim [3, 8] [%]
1 | Cn1c(CCO)nc2cc(N3C(=S)N(c4cnc(C#N)c(C(F)(F)F)c4)C(=O)C34CCC4)ccc21 [Cpd 255, 5-[8-[2-(2-hydroxyethyl)-1-methyl-benzimidazol-5-yl]-5-oxo-7-thioxo-6,8-diazaspiro[3.4]octan-6-yl]-3-(trifluoromethyl)pyridine-2-carbonitrile] | 99 | 2750 | 0.4 | > 15100 | 0.1 | > 15100 | 94.7 | 2510 | – | – | – | – | –
2 | N#Cc1ncc(N2C(=O)C3(CCC3)N(c3ccc(OC4CC5CC4CN5)nc3)C2=S)cc1C(F)(F)F [Cpd 165, (R,S)-5-[8-[6-(2-azabicyclo[2.2.1]heptan-5-yloxy)-3-pyridyl]-5-oxo-7-thioxo-6,8-diazaspiro[3.4]octan-6-yl]-3-(trifluoromethyl)pyridine-2-carbonitrile] | – | 316 | – | > 15100 | – | > 15100 | – | 324 | 100 | 0.2 | 0 | 101 | –
3 | N#Cc1ncc(N2C(=O)C3(CCC3)N(c3ccc(OC4CC5CC4CN5)cc3)C2=S)cc1C(F)(F)F [Cpd 150, (R,S)-5-[8-[4-(2-azabicyclo[2.2.1]heptan-5-yloxy)phenyl]-5-oxo-7-thioxo-6,8-diazaspiro[3.4]octan-6-yl]-3-(trifluoromethyl)pyridine-2-carbonitrile] | – | 245 | – | > 15100 | – | > 15100 | – | 490 | 103 | 0.4 | -0.2 | 102 | –
4 | CN1CC2CCC(C1)C2Oc1ccc(N2C(=S)N(c3cnc(C#N)c(C(F)(F)F)c3)C(=O)C23CCC3)cn1 (centres unmarked) [Cpd 147, 5-[8-[6-[(3-methyl-3-azabicyclo[3.2.1]octan-8-yl)oxy]-3-pyridyl]-5-oxo-7-thioxo-6,8-diazaspiro[3.4]octan-6-yl]-3-(trifluoromethyl)pyridine-2-carbonitrile] | – | 209 | – | > 15100 | – | > 15100 | – | 224 | 101 | -0.1 | -0.1 | 102 | –
5 | COCCn1ncc2cc(N3C(=S)N(c4cnc(C#N)c(C(F)(F)F)c4)C(=O)C34CCC4)ccc21 [Cpd 170, 5-[8-[1-(2-methoxyethyl)indazol-5-yl]-5-oxo-7-thioxo-6,8-diazaspiro[3.4]octan-6-yl]-3-(trifluoromethyl)pyridine-2-carbonitrile] | – | 309 | – | > 15100 | – | > 15100 | – | 589 | 102 | 0.2 | 0.1 | 101 | –
6 | CN1CCC(Oc2ccc(N3C(=S)N(c4cnc(C#N)c(C(F)(F)F)c4)C(=O)C34CCC4)cc2)C(F)(F)C1 (racemic) [Cpd 137, (R,S)-5-[8-[4-[(3,3-difluoro-1-methyl-4-piperidyl)oxy]phenyl]-5-oxo-7-thioxo-6,8-diazaspiro[3.4]octan-6-yl]-3-(trifluoromethyl)pyridine-2-carbonitrile] | – | 83.2 | – | > 15100 | – | > 15100 | – | 49 | 98.7 | 0.3 | 0.9 | 102 | –
7 | CN1CC2CC1CC2Oc1ccc(N2C(=S)N(c3cnc(C#N)c(C(F)(F)F)c3)C(=O)C23CCC3)cc1 [Cpd 176, (R,S)-5-[8-[4-[(2-methyl-2-azabicyclo[2.2.1]heptan-5-yl)oxy]phenyl]-5-oxo-7-thioxo-6,8-diazaspiro[3.4]octan-6-yl]-3-(trifluoromethyl)pyridine-2-carbonitrile] | – | 269 | – | > 15100 | – | > 15100 | – | 479 | 101 | 0.3 | 0.1 | 104 | –
8 | N#Cc1ncc(N2C(=O)C3(CCC3)N(c3ccc(CN4CCN(C5CC5)CC4)cc3)C2=S)cc1C(F)(F)F [Cpd 220, 5-[8-[4-[(4-cyclopropylpiperazin-1-yl)methyl]phenyl]-5-oxo-7-thioxo-6,8-diazaspiro[3.4]octan-6-yl]-3-(trifluoromethyl)pyridine-2-carbonitrile] | 101 | 589 | 0.1 | > 15100 | 0.1 | > 15100 | 102 | 741 | – | – | – | – | –
9 | CN1CC[C@@H](Oc2ccc(N3C(=S)N(c4cnc(C#N)c(C(F)(F)F)c4)C(=O)C34CCC4)cc2)C[C@H]1C(F)(F)F (racemic) [Cpd 158, 5-[8-[4-[[(2SR, 4RS)-1-methyl-2-(trifluoromethyl)-4-piperidyl]oxy]phenyl]-5-oxo-7-thioxo-6,8-diazaspiro[3.4]octan-6-yl]-3-(trifluoromethyl)pyridine-2-carbonitrile] | – | 427 | – | > 15100 | – | > 15100 | – | 316 | 95.6 | 0.3 | 2.3 | 100 | –
10 | N#Cc1ncc(N2C(=O)C3(CCC3)N(c3ccc(OC4CCCNCC4)cc3)C2=S)cc1C(F)(F)F (centres unmarked) [Cpd 17, 5-[8-(4-azaperhydroepin-4-yloxyphenyl)-5-oxo-7-thioxo-6,8-diazaspiro[3.4]oct-6-yl]-3-(trifluoromethyl)pyridine-2-carbonitrile] | – | 457 | – | > 15100 | – | > 15100 | – | 1510 | 100 | 0.3 | – | 98.5 | 0.1
11 | N#Cc1ncc(N2C(=O)C3(CCC3)N(c3cnc(OC4CCN(CCO)CC4)nc3)C2=S)cc1C(F)(F)F [Cpd 252, 5-[8-[2-[[1-(2-hydroxyethyl)-4-piperidyl]oxy]pyrimidin-5-yl]-5-oxo-7-thioxo-6,8-diazaspiro[3.4]octan-6-yl]-3-(trifluoromethyl)pyridine-2-carbonitrile] | 100 | 832 | -0.1 | > 15100 | -0.1 | > 15100 | 0 | 407 | – | – | – | – | –
12 | Cn1cnc2cc(N3C(=S)N(c4cnc(C#N)c(C(F)(F)F)c4)C(=O)C34CCC4)ccc21 [Cpd 244, 5-[8-(1-methylbenzimidazol-5-yl)-5-oxo-7-thioxo-6,8-diazaspiro[3.4]octan-6-yl]-3-(trifluoromethyl)pyridine-2-carbonitrile] | 101 | 245 | 0.2 | > 15100 | -0.5 | > 15100 | 98.7 | 646 | – | – | – | – | –
13 | COc1cc(N2C(=O)C3(CCC3)N(c3ccc4c(cnn4CCO)c3)C2=S)cnc1C#N [Cpd 167, 5-[8-[1-(2-hydroxyethyl)indazol-5-yl]-5-oxo-7-thioxo-6,8-diazaspiro[3.4]octan-6-yl]-3-methoxy-pyridine-2-carbonitrile] | – | 288 | – | > 15100 | – | > 15100 | – | 832 | 102 | -0.2 | 0 | 101 | –
14 | N#Cc1ncc(N2C(=O)C3(CCC3)N(c3ccc(OC4C5CCC4CNC5)nc3)C2=S)cc1C(F)(F)F (centres unmarked) [Cpd 139, 5-[8-[6-(3-azabicyclo[3.2.1]octan-8-yloxy)-3-pyridyl]-5-oxo-7-thioxo-6,8-diazaspiro[3.4]octan-6-yl]-3-(trifluoromethyl)pyridine-2-carbonitrile] | – | 513 | – | > 15100 | – | > 15100 | – | 589 | 99.8 | 1.2 | 0.1 | 102 | –
15 | CN1CC[C@H](CNC(=O)c2ccc(N3C(=S)N(c4cnc(C#N)c(C(F)(F)F)c4)C(=O)C34CCC4)cc2)C1 [Cpd 206, 4-[6-[6-cyano-5-(trifluoromethyl)-3-pyridyl]-5-oxo-7-thioxo-6,8-diazaspiro[3.4]octan-8-yl]-N-[[(3R)-1-methylpyrrolidin-3-yl]methyl]benzamide] | 99.3 | 617 | 0.1 | > 15100 | 0.1 | > 15100 | 101 | 851 | – | – | – | – | –
16 | CC(C)(C)OC(=O)N1CCC(CNC(=O)c2ccc(N3C(=S)N(c4cnc(C#N)c(C(F)(F)F)c4)C(=O)C34CCC4)cc2)CC1 [Cpd 46, tert-butyl 4-[[[4-[6-[6-cyano-5-(trifluoromethyl)-3-pyridyl]-5-oxo-7-thioxo-6,8-diazaspiro[3.4]octan-8-yl]benzoyl]amino]methyl]piperidine-1-carboxylate] | – | 110 | – | > 15100 | – | > 15100 | – | 219 | 97.6 | 1.1 | 0.3 | 101 | –
